Assay results: patent publication US11377423B2, “Inhibitors of histone deacetylase” (The Broad Institute, Inc., priority 2012, dated 2022)
Several values for one entry are separate records, joined by “and”; a condition that tells them apart may be missing. Equal entries are not always repeated. Where two headings read alike, the source gives them in different places.

Biological target: HDAC2 (Homo sapiens (Human), UniProt Q92769)
Assay: Kinetics of the inhibition of HDAC2

HDAC2, sequence (Q92769 whole entry): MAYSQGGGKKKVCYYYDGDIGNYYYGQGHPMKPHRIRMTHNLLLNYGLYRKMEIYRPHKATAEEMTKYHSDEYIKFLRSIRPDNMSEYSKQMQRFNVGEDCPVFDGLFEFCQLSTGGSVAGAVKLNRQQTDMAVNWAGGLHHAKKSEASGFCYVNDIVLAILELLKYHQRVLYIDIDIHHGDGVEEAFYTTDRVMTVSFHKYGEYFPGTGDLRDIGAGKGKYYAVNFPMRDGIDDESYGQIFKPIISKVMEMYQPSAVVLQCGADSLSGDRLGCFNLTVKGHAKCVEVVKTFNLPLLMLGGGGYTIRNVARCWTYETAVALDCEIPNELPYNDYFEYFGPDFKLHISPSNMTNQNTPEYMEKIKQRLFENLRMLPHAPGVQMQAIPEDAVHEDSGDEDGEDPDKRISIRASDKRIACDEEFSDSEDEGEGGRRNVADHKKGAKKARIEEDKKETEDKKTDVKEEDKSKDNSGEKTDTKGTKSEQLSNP

Ki: ~6.3 µM
koff: 0.000867 s⁻¹
Ki (HDAC2): 6.3 µM
koff (HDAC2): 0.000867 s⁻¹
type of binding to HDAC2 (words) (HDAC2): fast off inhibitor
type of binding to HDAC2 (words) (HDAC2, listed as compound 1): slow on/fast off rates
T1/2 (HDAC2 residence): 13 min
Structure (SMILES): CC(=O)Nc1ccc(C(=O)Nc2ccc(F)cc2N)cc1 [Compound 1, 4-acetamido-N-(2-amino-4-fluorophenyl)benzamide]
Kon (HDAC2): 0.0082 min^−1, uM^−1 and ~0.0082 min^−1, uM^−1
